Experiment: Foam evaluation of the prepared solutions: whether foam was produced, and foam description and quality
Format: physicochemical
Protocol: Examples 1 through 12 were prepared to illustrate the ability to produce alcohol-based disinfecting formulations which can be dispensed as foams using different surfactants and a solution of water and 50% ethanol. Examples 13 through 16 illustrate increasing concentrations of a silicone-based surfactant to produce foam with 40% ethanol. Examples 17 through 32 show increasing concentrations of ethanol with different silicone-based surfactants to produce foam. Examples 33 through 36 illustrate increasing concentrations of a silicone-based surfactant to produce acceptable foam at 62% ethanol. Examples 37 through 52 illustrate the ability to produce foam using different surfactants and a solution of 70% v/v Isopropanol. All parts and percentages are expressed by weight unless otherwise indicated.
The following examples were intended to evaluate the foaming ability of different groups of silicone surfactants with different combinations of ethanol, n-propyl alcohol and Isopropyl alcohol. They were also designed to asses the effect in the after feel as well as in the foam quality of some emollients and humectants, lipids, and other cosmetic type desired ingredients to be used with a leave-on hand sanitizer product. […]
The solutions prepared, were evaluated as to whether foam was produced or not and if so, then the foam produced was described as follows: […]

## Cocamidopropyl betaine
CAPB alone, 40% ethanol, 3% CAPB, versus 60% v/v ethanol with less than 1.0% silicone-based surfactant
  Foam result compared with silicone-based surfactants: unable to produce as good results
Above 40% ethanol
  Acceptable foam: does not give any acceptable foam

Reference: US8309111B2, “High alcohol content foaming compositions with silicone-based surfactants” (Deb Worldwide Healthcare Inc., priority 2005, dated 2012)
